Experimental data: patent US20260345517A1, “DOSAGE REGIMENS FOR TREATING STARGARDT DISEASE” (Alkeus Pharmaceuticals, Inc., priority 2024, published 2026)

Test: TEASE-1: safety and adverse events
Format: in vivo, human
Description: The Tolerability and Effects of gildeuretinol acetate in Stargardt Disease (Clinical trial group 1 also known as TEASE-1) was a 24-month, multicenter, double-masked, placebo-controlled trial designed to evaluate the efficacy and safety of daily oral gildeuretinol acetate in slowing the growth of atrophic retinal lesions in Stargardt disease patients. The trial was conducted at multiple sites in the United States (NCT02402660).
Patients 12 years or older, clinically diagnosed with Stargardt disease, with at least one ABCA4 mutation, at least one eye presenting with well-demarcated areas of reduced fundus autofluorescence, and with any visual acuity, were eligible.
Patients were randomized to gildeuretinol acetate 14 mg capsules, gildeuretinol acetate 24 mg capsules, or placebo capsules, to be taken once daily for one year. After one year, 50% of randomly selected patients receiving placebo were crossed over in a 1:1 ratio to gildeuretinol acetate 14 mg capsules or gildeuretinol acetate 24 mg capsules for a second year.
Gildeuretinol acetate and placebo capsules were identical appearing capsules. Patients were advised to avoid vitamin A-containing supplements and liver-based products. Fruits and vegetables contain beta-carotene, not preformed vitamin A, and could be consumed without limitation. Trial visits occurred at 8 weeks and 6, 12, 18, and 24 months following screening and randomization.

CC(=O)OC/C=C(C)/C=C/C=C(C)/C=C/C1=C(C)CCCC1(C)C [gildeuretinol acetate, C20-D3-retinol acetate]
changes by physical examination, electrocardiogram, vital signs, hematology, biochemistry and lipid panels (14 mg and 24 mg): no changes were attributed to gildeuretinol acetate | changes in visual acuity (14 mg and 24 mg): No changes in visual acuity were observed | discontinuation due to side effects (14 mg and 24 mg): no patient discontinued treatment due to side effects | serious adverse events (14 mg and 24 mg): No serious adverse events | severity of adverse events (14 mg and 24 mg): mild or moderate | association between treatment groups and frequency of adverse events (14 mg and 24 mg vs placebo): no association was observed | Abdominal discomfort (14 mg, N = 15): 0 patients (%) | Abdominal distension (14 mg, N = 15): 0 patients (%) | Abdominal pain upper (14 mg, N = 15): 0 patients (%) | Abnormal dreams (14 mg, N = 15): 0 patients (%) | Adverse events, Overall (14 mg, N = 15): 12 (80) patients (%) | Alanine aminotransferase increased (14 mg, N = 15): 1 (6.7) patients (%) | Alopecia (14 mg, N = 15): 2 (13.3) patients (%) | Ankle fracture (14 mg, N = 15): 1 (6.7) patients (%) | Arthralgia (14 mg, N = 15): 1 (6.7) patients (%) | Arthritis (14 mg, N = 15): 0 patients (%) | Aspartate aminotransferase increased (14 mg, N = 15): 1 (6.7) patients (%) | Back injury (14 mg, N = 15): 0 patients (%) | Back pain (14 mg, N = 15): 0 patients (%) | Blepharospasm (14 mg, N = 15): 0 patients (%) | Blood cholesterol increased (14 mg, N = 15): 0 patients (%) | Blood creatinine increased (14 mg, N = 15): 1 (6.7) patients (%) | Blood iron decreased (14 mg, N = 15): 0 patients (%) | Blood pressure increased (14 mg, N = 15): 0 patients (%) | Blood triglycerides increased (14 mg, N = 15): 1 (6.7) patients (%) | Bowel movement irregularity (14 mg, N = 15): 0 patients (%) | Bronchitis (14 mg, N = 15): 0 patients (%) | Cartilage injury (14 mg, N = 15): 1 (6.7) patients (%) | Conjunctival laceration (14 mg, N = 15): 0 patients (%) | Conjunctivitis (14 mg, N = 15): 1 (6.7) patients (%) | Constipation (14 mg, N = 15): 0 patients (%) | Cough (14 mg, N = 15): 0 patients (%) | Death (14 mg, N = 15): 1 (6.7) patients (%) | Depression (14 mg, N = 15): 1 (6.7) patients (%) | Diarrhoea (14 mg, N = 15): 1 (6.7) patients (%) | Diplopia (14 mg, N = 15): 0 patients (%) | Dry eye (14 mg, N = 15): 0 patients (%) | Dry mouth (14 mg, N = 15): 1 (6.7) patients (%) | Dry skin (14 mg, N = 15): 0 patients (%) | Ear discomfort (14 mg, N = 15): 0 patients (%) | Ear infection (14 mg, N = 15): 0 patients (%) | Ear pain (14 mg, N = 15): 0 patients (%) | Eczema (14 mg, N = 15): 0 patients (%) | Electrocardiogram abnormal (14 mg, N = 15): 0 patients (%) | Erythema (14 mg, N = 15): 0 patients (%) | Eye irritation (14 mg, N = 15): 1 (6.7) patients (%) | Eye pain (14 mg, N = 15): 0 patients (%) | Eye pruritus (14 mg, N = 15): 0 patients (%) | Face injury (14 mg, N = 15): 1 (6.7) patients (%) | Faeces soft (14 mg, N = 15): 1 (6.7) patients (%) | Fall (14 mg, N = 15): 1 (6.7) patients (%) | Gastroenteritis (14 mg, N = 15): 1 (6.7) patients (%) | Gastroenteritis viral (14 mg, N = 15): 0 patients (%) | Hair texture abnormal (14 mg, N = 15): 0 patients (%) | Hand fracture (14 mg, N = 15): 1 (6.7) patients (%) | Headache (14 mg, N = 15): 1 (6.7) patients (%) | Herpes zoster (14 mg, N = 15): 1 (6.7) patients (%) | Hordeolum (14 mg, N = 15): 0 patients (%) | Hypertension (14 mg, N = 15): 0 patients (%) | Hypobarism (14 mg, N = 15): 0 patients (%) | Hypothyroidism (14 mg, N = 15): 0 patients (%) | Hysterectomy (14 mg, N = 15): 0 patients (%) | Inflammation (14 mg, N = 15): 0 patients (%) | Influenza (14 mg, N = 15): 0 patients (%) | Insomnia (14 mg, N = 15): 1 (6.7) patients (%) | Intracranial pressure increased (14 mg, N = 15): 0 patients (%) | Irritability (14 mg, N = 15): 0 patients (%) | Jaw operation (14 mg, N = 15): 0 patients (%) | Knee arthroplasty (14 mg, N = 15): 1 (6.7) patients (%) | Laryngitis (14 mg, N = 15): 1 (6.7) patients (%) | Lip swelling (14 mg, N = 15): 0 patients (%) | Low density lipoprotein increased (14 mg, N = 15): 1 (6.7) patients (%) | Muscle spasms (14 mg, N = 15): 1 (6.7) patients (%) | Muscle strain (14 mg, N = 15): 0 patients (%) | Musculoskeletal pain (14 mg, N = 15): 1 (6.7) patients (%) | Nasopharyngitis (14 mg, N = 15): 2 (13.3) patients (%) | Nausea (14 mg, N = 15): 0 patients (%) | Neck pain (14 mg, N = 15): 0 patients (%) | Nephrolithiasis (14 mg, N = 15): 1 (6.7) patients (%) | Nerve compression (14 mg, N = 15): 0 patients (%) | Neuralgia (14 mg, N = 15): 1 (6.7) patients (%) | Obsessive-compulsive disorder (14 mg, N = 15): 0 patients (%) | Oropharyngeal pain (14 mg, N = 15): 0 patients (%) | Osteoporosis (14 mg, N = 15): 0 patients (%) | Pain (14 mg, N = 15): 2 (13.3) patients (%) | Pain in extremity (14 mg, N = 15): 1 (6.7) patients (%) | Pain in jaw (14 mg, N = 15): 0 patients (%) | Peripheral coldness (14 mg, N = 15): 0 patients (%) | Pharyngitis streptococcal (14 mg, N = 15): 1 (6.7) patients (%) | Photophobia (14 mg, N = 15): 1 (6.7) patients (%) | Photopsia (14 mg, N = 15): 1 (6.7) patients (%) | Plantar fasciitis (14 mg, N = 15): 1 (6.7) patients (%) | Pleurisy (14 mg, N = 15): 0 patients (%) | Pneumonia (14 mg, N = 15): 0 patients (%) | Premenstrual syndrome (14 mg, N = 15): 0 patients (%) | Punctate keratitis (14 mg, N = 15): 1 (6.7) patients (%) | Pyrexia (14 mg, N = 15): 0 patients (%) | Radius fracture (14 mg, N = 15): 1 (6.7) patients (%) | Rash (14 mg, N = 15): 1 (6.7) patients (%) | Rotator cuff syndrome (14 mg, N = 15): 0 patients (%) | Sialoadenitis (14 mg, N = 15): 1 (6.7) patients (%) | Sinus congestion (14 mg, N = 15): 0 patients (%) | Sinusitis (14 mg, N = 15): 1 (6.7) patients (%) | Sjogren's syndrome (14 mg, N = 15): 1 (6.7) patients (%) | Skin infection (14 mg, N = 15): 0 patients (%) | Subdural haematoma (14 mg, N = 15): 1 (6.7) patients (%) | Syncope (14 mg, N = 15): 0 patients (%) | Tendonitis (14 mg, N = 15): 1 (6.7) patients (%) | Thoracic outlet syndrome (14 mg, N = 15): 0 patients (%) | Tongue dry (14 mg, N = 15): 1 (6.7) patients (%) | Tooth abscess (14 mg, N = 15): 0 patients (%) | Tooth extraction (14 mg, N = 15): 0 patients (%) | Toothache (14 mg, N = 15): 0 patients (%) | Upper respiratory tract infection (14 mg, N = 15): 1 (6.7) patients (%) | Vision blurred (14 mg, N = 15): 1 (6.7) patients (%) | Visual field defect (14 mg, N = 15): 0 patients (%) | Visual impairment (14 mg, N = 15): 1 (6.7) patients (%) | Vitamin B12 deficiency (14 mg, N = 15): 1 (6.7) patients (%) | Vitamin D decreased (14 mg, N = 15): 2 (13.3) patients (%) | Vitreous floaters (14 mg, N = 15): 1 (6.7) patients (%) | Vulvovaginal candidiasis (14 mg, N = 15): 0 patients (%) | Wrist fracture (14 mg, N = 15): 0 patients (%) | Xanthelasma (14 mg, N = 15): 0 patients (%) | blurred optic disc margins with transient visual obscuration (24 mg, 12-month visit, ocular exam): observed in one patient | Abdominal discomfort (24 mg, N = 15): 1 (6.7) patients (%) | Abdominal distension (24 mg, N = 15): 1 (6.7) patients (%) | Abdominal pain upper (24 mg, N = 15): 1 (6.7) patients (%) | Abnormal dreams (24 mg, N = 15): 1 (6.7) patients (%) | Adverse events, Overall (24 mg, N = 15): 13 (86.7) patients (%) | Alanine aminotransferase increased (24 mg, N = 15): 0 patients (%) | Alopecia (24 mg, N = 15): 0 patients (%) | Ankle fracture (24 mg, N = 15): 0 patients (%) | Arthralgia (24 mg, N = 15): 1 (6.7) patients (%) | Arthritis (24 mg, N = 15): 0 patients (%) | Aspartate aminotransferase increased (24 mg, N = 15): 0 patients (%) | Back injury (24 mg, N = 15): 0 patients (%) | Back pain (24 mg, N = 15): 1 (6.7) patients (%) | Blepharospasm (24 mg, N = 15): 0 patients (%) | Blood cholesterol increased (24 mg, N = 15): 1 (6.7) patients (%) | Blood creatinine increased (24 mg, N = 15): 0 patients (%) | Blood iron decreased (24 mg, N = 15): 1 (6.7) patients (%) | Blood pressure increased (24 mg, N = 15): 1 (6.7) patients (%) | Blood triglycerides increased (24 mg, N = 15): 0 patients (%) | Bowel movement irregularity (24 mg, N = 15): 1 (6.7) patients (%) | Bronchitis (24 mg, N = 15): 0 patients (%) | Cartilage injury (24 mg, N = 15): 0 patients (%) | Conjunctival laceration (24 mg, N = 15): 1 (6.7) patients (%) | Conjunctivitis (24 mg, N = 15): 0 patients (%) | Constipation (24 mg, N = 15): 1 (6.7) patients (%) | Cough (24 mg, N = 15): 2 (13.3) patients (%) | Death (24 mg, N = 15): 0 patients (%) | Depression (24 mg, N = 15): 0 patients (%) | Diarrhoea (24 mg, N = 15): 0 patients (%) | Diplopia (24 mg, N = 15): 1 (6.7) patients (%) | Dry eye (24 mg, N = 15): 1 (6.7) patients (%) | Dry mouth (24 mg, N = 15): 0 patients (%) | Dry skin (24 mg, N = 15): 1 (6.7) patients (%) | Ear discomfort (24 mg, N = 15): 1 (6.7) patients (%) | Ear infection (24 mg, N = 15): 0 patients (%) | Ear pain (24 mg, N = 15): 0 patients (%) | Eczema (24 mg, N = 15): 0 patients (%) | Electrocardiogram abnormal (24 mg, N = 15): 0 patients (%) | Erythema (24 mg, N = 15): 0 patients (%) | Eye irritation (24 mg, N = 15): 0 patients (%) | Eye pain (24 mg, N = 15): 1 (6.7) patients (%) | Eye pruritus (24 mg, N = 15): 1 (6.7) patients (%) | Face injury (24 mg, N = 15): 0 patients (%) | Faeces soft (24 mg, N = 15): 0 patients (%) | Fall (24 mg, N = 15): 1 (6.7) patients (%) | Gastroenteritis (24 mg, N = 15): 0 patients (%) | Gastroenteritis viral (24 mg, N = 15): 1 (6.7) patients (%) | Hair texture abnormal (24 mg, N = 15): 0 patients (%) | Hand fracture (24 mg, N = 15): 0 patients (%) | Headache (24 mg, N = 15): 2 (13.3) patients (%) | Herpes zoster (24 mg, N = 15): 0 patients (%) | Hordeolum (24 mg, N = 15): 1 (6.7) patients (%) | Hypertension (24 mg, N = 15): 1 (6.7) patients (%) | Hypobarism (24 mg, N = 15): 1 (6.7) patients (%) | Hypothyroidism (24 mg, N = 15): 1 (6.7) patients (%) | Hysterectomy (24 mg, N = 15): 1 (6.7) patients (%)
